The text below walks through data of patent EP2951180B1, “2,6,7,8 SUBSTITUTED PURINES AS HDM2 INHIBITORS” (Merck Sharp & Dohme Corp., priority 2013, dated 2014).

pIC50: −log10 of the molar value.

The target of the assay is T1, HDM2 (Homo sapiens, UniProt Q00987).
T1 construct: Thioredoxin (N); made in house; host or cells: E. coli strain BL21(DE3)Rosetta
T1 sequence (Q00987 17-125): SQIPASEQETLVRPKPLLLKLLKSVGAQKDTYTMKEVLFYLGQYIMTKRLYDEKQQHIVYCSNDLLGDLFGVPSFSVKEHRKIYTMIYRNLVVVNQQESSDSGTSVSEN
The assay is described as follows: HDM2 FRET assay (inhibition of binding of FITC labeled p53-pocket peptide to HDM2). The conditions noted are these: Table 22; read-out: FRET IC50. The procedure, abridged: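 Compounds were tested in 10-point serial dilution against 0.5 nM recombinant HDM2 binding 3 nM fluorescein-labeled p53-pocket peptide. Detection used 0.25 nM terbium cryptate anti-6xHis antibody in PBS buffer containing 0.01% BSA and 0.01% Tween-20.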
For the compound `CC(C)C(O)c1nc2nc(-c3noc(=O)[nH]3)nc(N[C@H](C)C3CCC3)c2n1C[C@H]1CC[C@H](C)CC1` (stereo partly drawn) [Example 22.48, 3-(6-{[(1R)-1-cyclobutylethyl]amino}-8-(1-hydroxy-2-methylpropyl)-7-[(trans-4-methylcyclohexyl)methyl] -7H-purin-2-yl)-1,2,4-oxadiazol-5(4H)-one], the negative-log IC50 (pIC50) is 7.52.
In the case of `C[C@@H](Nc1nc(-c2noc(=O)[nH]2)nc2nc(C3(c4cccc(F)c4)CC3)n(C[C@H]3CC[C@H](C)CC3)c12)C1CCC1` [Example 22.49, 3-(6-{[(1R)-1-cyclobutylethyl]amino}-8-[1-(3-fluorophenyl)cyclopropyl] -7-[(trans-4-methylcyclohexyl)methyl] -7H-purin-2-yl)-1,2,4-oxadiazol-5(4H)-one] it was 7.77.
In the case of `C[C@@H](Nc1nc(-c2noc(=O)[nH]2)nc2nc(C(C)(O)c3cscn3)n(C[C@H]3CC[C@H](C)CC3)c12)C1CCC1` (stereo partly drawn) [Example 22.50, 3-(6-{[(1R)-1-cyclobutylethyl]amino}-8-[1-hydroxy-1-(1,3-thiazol-4-yl)ethyl]-7-[(trans-4-methylcyclohexyl)methyl] -7H-purin-2-yl)-1,2,4-oxadiazol-5(4H)-one] it was 7.99.
For `C[C@@H](Nc1nc(-c2noc(=O)[nH]2)nc2nc(C(C)(O)c3cccnc3)n(C[C@H]3CC[C@H](C)CC3)c12)C1CCC1` (stereo partly drawn) [Example 22.51, 3-(6-{[(1R)-1-cyclobutylethyl]amino}-8-(1-hydroxy-1-pyridin-3-ylethyl)-7-[(trans-4-methylcyclohexyl)methyl] -7H-purin-2-yl)-1,2,4-oxadiazol-5(2H)-one] the value was 7.67; for `C[C@@H](Nc1nc(-c2noc(=O)[nH]2)nc2nc(C(C)(O)c3cscn3)n(C[C@H]3CC[C@H](C)CC3)c12)C1CCC1` (stereo partly drawn) [Example 22.52, 3-(6-{[(1R)-1-cyclobutylethyl]amino}-8-[1-hydroxy-1-(1,3-thiazol-4-yl)ethyl]-7-[(trans-4-methylcyclohexyl)methyl] -7H-purin-2-yl)-1,2,4-oxadiazol-5(4H)-one], 8.73.
With `C[C@@H](Nc1nc(-c2noc(=O)[nH]2)nc2nc(C3(c4ccncc4)CC3)n(C[C@H]3CC[C@H](C)CC3)c12)C1CCC1` [Example 22.53, 3-[6-{[(1R)-1-cyclobutylethyl]amino}-7-[(trans-4-methylcyclohexyl)methyl] -8-(1-pyridin-4-ylcyclopropyl)-7H-purin-2-yl]-1,2,4-oxadiazol-5(4H)-one], the negative-log IC50 (pIC50) was 8.34.
In the case of `C[C@@H](Nc1nc(-c2noc(=O)[nH]2)nc2nc(C3(c4cscn4)CC3)n(C[C@H]3CC[C@H](C)CC3)c12)C1CCC1` [Example 22.54, 3-(6-{[(1R)-1-cyclobutylethyl]amino}-7-[(trans-4-methylcyclohexyl)methyl] -8-[1-(1,3-thiazol-4-yl)cyclopropyl]-7H-purin-2-yl)-1,2,4-oxadiazol-5(4H)-one] it was 8.65; in that of `C[C@@H](Nc1nc(-c2noc(=O)[nH]2)nc2nc(C(C)(O)c3ccn(C)n3)n(C[C@H]3CC[C@H](C)CC3)c12)C1CCC1` (stereo partly drawn) [Example 22.55, 3-(6-{[(1R)-1-cyclobutylethyl]amino}-8-[1-hydroxy-1-(1-methyl-1H-pyrazol-3-yl)ethyl]-7-[(trans-4-methylcyclohexyl)methyl] -7H-purin-2-yl)-1,2,4-oxadiazol-5(2H)-one], 7.64; in that of `C[C@@H](Nc1nc(-c2noc(=O)[nH]2)nc2nc(C(C)(O)c3nccs3)n(C[C@H]3CC[C@H](C)CC3)c12)C1CCC1` (stereo partly drawn) [Example 22.56, 3-(6-{[(1R)-1-cyclobutylethyl]amino}-8-[1-hydroxy-1-(1,3-thiazol-2-yl)ethyl]-7-[(trans-4-methylcyclohexyl)methyl] -7H-purin-2-yl)-1,2,4-oxadiazol-5(4H)-one], 8.61.
